Data on one compound can be found in US9023845B2, “Compositions and methods for treating lysosomal disorders” (priority 2007, dated 2015).

In test [1] the test system is Gaucher and/or Fabry B-cell lines. Nature of the test: Effect on cultured cell GSLs (TLC, orcinol detection). The test is classed as cell-based. The note with it: 3 days, GSL fractions by TLC/orcinol.
In test [2] the test system is Fabry mice. The conditions noted are these: mouse, in vivo, ip.
Test [3] relates to Fabry mice. The conditions noted are these: mouse, in vivo.

“Also recorded” adds a separate entry of the source.

Take `CCOC/C=C/c1ccc(-c2nc(-c3ccc(NC(C)C)cc3)c(-c3ccc(NC(C)C)cc3)[nH]2)cc1` [Formula 2]: in test [1] (4 μM), the Gb3 levels entry is reported as “decrease”; the “LacCer and GlcCer levels” value is reported as “increased”. In test [1] (8 μM), the “complex GSL levels” value is “significant reduced”. Further, in the test with Fabry mice [2], the VT1 staining entry is on record as “decreased VT1 staining”, the “levels of GlcCer and/or LacCer” value is given as “increased levels” and the “levels of complex GSLs such as Gb3” value is given as “lower levels”. For the same compound, in the test with Fabry mice [3], the “heart Gb3 staining (VT1)” value is recorded as “effective in reducing heart Gb3 staining” and the “liver Gb3 staining (VT1)” value is reported as “essentially no residual staining for Gb3 within the liver; also recorded: considerably less than in the control group; also recorded: more effective in reducing liver Gb3 staining as compared to mice treated with cyclosporine; also recorded: essentially removed Gb3 from the liver Kupffer cells”.
